test system: BxPC3; assay: CellTiter-Glo 2.0 Cytotoxicity Assay; type: cell-based; conditions: Homo sapiens, BXPC-3, CellTiter-Glo 2.0 luminescence; compound added day 1, read on day 4 or 5; 3000 cells/well

SMILES | EC50
COc1cccc2c1C(=O)c1c(O)c3c(c(O)c1C2=O)C[C@@](O)(C(=O)NCCN1C(=O)CNC1=O)C[C@@H]3O[C@H]1C[C@H]2[C@H](O[C@@H]3[C@@H](OC)OCCN32)[C@H](C)O1 [Compound 62] | 0.19 nM
COc1cccc2c1C(=O)c1c(O)c3c(c(O)c1C2=O)C[C@@](O)(C(=O)NCc1cccc(N)c1)C[C@@H]3O[C@H]1C[C@H]2[C@H](O[C@@H]3[C@@H](OC)OCCN32)[C@H](C)O1 [Compound 1, (2S,4S)—N-(3-aminobenzyl)-2,5,12-trihydroxy-7-methoxy-4-(((1S,3R,4aS,9S,9aR,10aS)-9-methoxy-1-methyloctahydro-1H-pyrano[4′,3′:4,5]oxazolo[2,3-c][1,4]oxazin-3-yl)oxy)-6,11-dioxo-1,2,3,4,6,11-hexahydrotetracene-2-carboxamide] | 0.08 nM
COc1cccc2c1C(=O)c1c(O)c3c(c(O)c1C2=O)C[C@@](O)(C(=O)NCCO)C[C@@H]3O[C@H]1C[C@H]2[C@H](O[C@@H]3[C@@H](OC)OCCN32)[C@H](C)O1 [Compound 89] | 0.37 nM
COc1cccc2c1C(=O)c1c(O)c3c(c(O)c1C2=O)C[C@@](O)(C(=O)NC1CCNC1)C[C@@H]3O[C@H]1C[C@H]2[C@H](O[C@@H]3[C@@H](OC)OCCN32)[C@H](C)O1 (stereo partly drawn) [Compound 12] | 7.7 nM
COc1cccc2c1C(=O)c1c(O)c3c(c(O)c1C2=O)C[C@@](O)(C(=O)NCc1ccc(N)nc1)C[C@@H]3O[C@H]1C[C@H]2[C@H](O[C@@H]3[C@@H](OC)OCCN32)[C@H](C)O1 [Compound 72] | 0.08 nM
COc1cccc2c1C(=O)c1c(O)c3c(c(O)c1C2=O)C[C@@](O)(C(=O)NCCC1(N)COC1)C[C@@H]3O[C@H]1C[C@H]2[C@H](O[C@@H]3[C@@H](OC)OCCN32)[C@H](C)O1 [Compound 51] | 0.18 nM
COc1cccc2c1C(=O)c1c(O)c3c(c(O)c1C2=O)C[C@@](O)(C(=O)NCC[C@@H]1CCCN1)C[C@@H]3O[C@H]1C[C@H]2[C@H](O[C@@H]3[C@@H](OC)OCCN32)[C@H](C)O1 [Compound 40] | 4.3 nM
COc1cccc2c1C(=O)c1c(O)c3c(c(O)c1C2=O)C[C@@](O)(C(=O)NCc1ccc(N)cc1)C[C@@H]3O[C@H]1C[C@H]2[C@H](O[C@@H]3[C@@H](OC)OCCN32)[C@H](C)O1 [Compound 23] | 0.06 nM
COc1cccc2c1C(=O)c1c(O)c3c(c(O)c1C2=O)C[C@@](O)(C(=O)NCc1ccc(O)cc1)C[C@@H]3O[C@H]1C[C@H]2[C@H](O[C@@H]3[C@@H](OC)OCCN32)[C@H](C)O1 [Compound 78] | 0.056 nM
COc1cccc2c1C(=O)c1c(O)c3c(c(O)c1C2=O)C[C@@](O)(C(=O)NCc1cnc(N)o1)C[C@@H]3O[C@H]1C[C@H]2[C@H](O[C@@H]3[C@@H](OC)OCCN32)[C@H](C)O1 [Compound 70] | 0.095 nM
COc1cccc2c1C(=O)c1c(O)c3c(c(O)c1C2=O)C[C@@](O)(C(=O)N[C@H]1CCCC[C@@H]1N)C[C@@H]3O[C@H]1C[C@H]2[C@H](O[C@@H]3[C@@H](OC)OCCN32)[C@H](C)O1 [Compound 25] | 10.5 nM
COc1cccc2c1C(=O)c1c(O)c3c(c(O)c1C2=O)C[C@@](O)(C(=O)Nc1ccc(N)cc1)C[C@@H]3O[C@H]1C[C@H]2[C@H](O[C@@H]3[C@@H](OC)OCCN32)[C@H](C)O1 [Compound 77] | 0.11 nM
COc1cccc2c1C(=O)c1c(O)c3c(c(O)c1C2=O)C[C@@](O)(C(=O)NCCCN)C[C@@H]3O[C@H]1C[C@H]2[C@H](O[C@@H]3[C@@H](OC)OCCN32)[C@H](C)O1 [Compound 18] | 8.5 nM
COc1cccc2c1C(=O)c1c(O)c3c(c(O)c1C2=O)C[C@@](O)(C(=O)N[C@H]1[C@@H]2CNC[C@@H]21)C[C@@H]3O[C@H]1C[C@H]2[C@H](O[C@@H]3[C@@H](OC)OCCN32)[C@H](C)O1 [Compound 35] | 0.97 nM
COc1cccc2c1C(=O)c1c(O)c3c(c(O)c1C2=O)C[C@@](O)(C(=O)N[C@H]1C[C@@H](CN)C1)C[C@@H]3O[C@H]1C[C@H]2[C@H](O[C@@H]3[C@@H](OC)OCCN32)[C@H](C)O1 [Compound 55] | 10.2 nM

Reference: patent US20260132164A1, “PNU ANTHRACYCLINE DERIVATIVES AND METHODS OF USE THEREOF” (Merck Sharp & Dohme LLC, priority 2022, published 2026)
